Test results published in the NIST ThermoML archive (doi:10.1021/je800377b).
Numbers after ± are expanded uncertainties.

Settings: Liquid

Row | vapor or sublimation pressure (273.15 K) | vapor or sublimation pressure (283.15 K) | vapor or sublimation pressure (293.15 K) | vapor or sublimation pressure (303.15 K) | vapor or sublimation pressure (313.15 K) | vapor or sublimation pressure (323.15 K) | Compound
1 | 476 ± 6 kPa | 633 ± 8 kPa | 833 ± 10 kPa | 1079 ± 13 kPa | 1366 ± 17 kPa | 1709 ± 21 kPa | CCC [propane]
2 | 103 ± 2 kPa | 149 ± 3 kPa | 208 ± 3 kPa | 284 ± 4 kPa | 378 ± 5 kPa | 493 ± 6 kPa | CCCC [butane]
